We go through 29 molecules from PubChem BioAssay AID179 (DTP/NCI, 2004).

This experiment has as its system CEM cells HIV-1 protection, formazan growth assay. Nature of the experiment: NCI AIDS Antiviral Assay. Particulars: for IC50: measured here: growth of uninfected CEM cells. In a few lines:
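Screen of anti-HIV-1 activity in human CEM cells using a formazan-based growth measurement at five drug concentrations. Hits with 50% or greater protection were repeated, and confirmation required reproducible complete protection.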

Active and inactive are the calls of the source.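 The calls were made as follows: active = compounds giving half or more protection of infected cells from virus-caused growth loss, again on retest; inactive = the rest.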 Some results are limits rather than exact numbers.

Turning to `O=C1/C(=C/c2cccc(F)c2)CCc2ccccc21`, the EC50 is > 14.8 µM and the IC50 was > 14.8 µM.
In the case of `COC(=O)c1ccccc1C1CN=NC12Cc1cc3c(cc1C2=O)CCC3` (stereo unspecified), the result was inactive.
`S=C(N/N=C\c1ccccn1)N/N=C\c1ccccn1`: the EC50 is > 2 µM and the half-maximal inhibitory concentration (IC50) came to 0.813 µM.
In the case of `COc1ccc(C[C@H]2C(=O)OC[C@@H]2Cc2ccc(OC)c(OC)c2)cc1O`, the EC50 was > 200 µM and the concentration for half-maximal inhibition (IC50) was found to be 70.8 µM.
The matching figures for `CC1=C2N3C[C@@H](n4c(=O)n(C)c(=O)n43)C23CCC1n1c(=O)n(C)c(=O)n13`: > 72.4 µM and > 72.4 µM.
Consider `CCC12C=CCN(C1)C(=O)Cc1c([nH]c3ccccc13)/C(=N/NC(=O)OC)C2` (stereo unspecified), for which the EC50 was > 52.5 µM and the 50% inhibitory concentration (IC50) was > 52.5 µM.
Regarding `COc1ccccc1NC(=S)N/N=C/c1ccccn1`, the EC50 was > 0.2 µM and the IC50 came out at 0.0955 µM.
On to `CNC(=O)OCc1cnc([N+](=O)[O-])n1C`, for which the EC50 is > 200 µM and the IC50 was > 200 µM.
For `COC(=O)c1ccc(CCc2cc(O)ccc2O)cc1`, the EC50 is > 200 µM and the IC50 amounted to 4.9 µM.
In the case of `COC(=O)C(=O)C(C(=O)OC)C(=O)C(=O)Nc1cc(Cl)c(Cl)cc1Cl` (stereo unspecified), the EC50 was > 17.4 µM and the 50% inhibitory concentration (IC50) is > 17.4 µM.
On to `O=C(N=C1[Se]C(=Nc2ccccc2)C(=Nc2ccccc2)N1c1ccc(Cl)cc1)c1ccccc1`, for which the EC50 is > 100 µM and the IC50 is 89.1 µM.
`S=C(NCc1ccccc1)N/N=C/c1ccccn1`: the EC50 was > 20 µM and the IC50 is 0.141 µM.
`Brc1ccc2c(ccc3nc4nnnn4nc32)c1`: the EC50 is > 17.4 µM and the half-inhibitory concentration (IC50) is > 17.4 µM.
With `CN(C)CCN1C(=O)CC(c2ccccc2)Sc2ccccc21` (stereo unspecified), the EC50 is > 245 µM and the concentration for half-maximal inhibition (IC50) was > 245 µM.
In the case of `O=c1oc2ccccc2c(O)c1C(c1ccc2c(c1)OCO2)c1c(O)c2ccccc2oc1=O`, the EC50 was > 200 µM and the half-inhibitory concentration (IC50) is 75.9 µM.
With `FC(F)(F)C[P+](c1ccccc1)(c1ccccc1)c1ccccc1`, the EC50 is > 200 µM and the IC50 amounted to 46.8 µM.
`CCOC(=O)C1=CC(C(C)CC(=O)CC(=O)O)CC1` (stereo unspecified): the outcome was active.
For `COc1ccc(C2=C/C(=C/c3ccc(N(CCC#N)CCC#N)cc3)C(=O)O2)cc1`, the EC50 is > 13.2 µM and the half-inhibitory concentration (IC50) was > 13.2 µM.
Take `O=C(C=C1SCCS1)/C=C\c1ccc(Cl)cc1`: the EC50 was > 35.5 µM and the 50% inhibitory concentration (IC50) is > 35.5 µM.
With `CC(=O)Oc1ccc(C[C@H]2COC(=O)[C@@H]2Cc2ccc(OC(C)=O)c(OC(C)=O)c2)cc1OC(C)=O`, the EC50 is > 200 µM and the IC50 was found to be 17.4 µM.
The matching figures for `COc1ccc2c(c1)N(C)CCCC2=O`: > 200 µM and 151 µM.
For `CCc1cccc(C)c1NC(=O)CC(=O)NNC(N)=S` the same measures were > 324 µM and > 324 µM.
For `OCC(O)COc1c(Cl)ccc(Cl)c1Cl` (stereo unspecified) the same measures were 87.1 µM and 275 µM.
For `N#Cc1sc2c(c1OC(=O)c1cccs1)c(=O)n(-c1ccccc1)c(=S)n2-c1ccccc1`, the EC50 is > 200 µM and the IC50 was 6.03 µM.
The matching figures for `CCOC(=O)C(=Cc1ccc(-c2ccccc2)cc1)C(=O)OCC`: > 16.2 µM and 10.5 µM.
For `O=C1NC(=O)C(SSC2C(=O)NC(=O)NC2=O)C(=O)N1` the same measures were > 200 µM and > 200 µM.
For `Cc1ccc(S(=O)(=O)N(C=O)N=C2CCN(Cc3ccccc3)CC2)cc1` the same measures were > 61.7 µM and > 61.7 µM.
Consider `COC(=O)c1cc(NC2OCC(OC(C)=O)C(OC(C)=O)C2OC(C)=O)nc(SC)c1C(=O)OC` (stereo unspecified), for which the EC50 was > 200 µM and the half-inhibitory concentration (IC50) was > 200 µM.
In the case of `Cc1c(C(=O)CSc2nc3ccccc3c(=O)n2-c2ccccc2)c(=O)n(-c2ccccc2)n1C`, the EC50 was > 5.62 µM and the IC50 was > 5.62 µM.

As a reminder, the EC50 is the concentration needed to bring the measured effect to its halfway point. What is called IC50 is the concentration that gives 50% inhibition. A lower IC50 goes with inhibition by little substance.
